“Also recorded” adds a separate entry of the source.
Experiments:
[1] = test system: NSCs cultured in suspension; experiment: Phage biopanning (Ph.D.-7 library) against NSCs in suspension; assay type: binding, murine; details: after three rounds of biopanning; for %, eluted phage clones / Frequency, eluted phage clones: membrane bound phages (MP); for %, internalized phage clones / Frequency, internalized phage clones: internalized clones (IP)
Procedure: (§1) Two days prior cell seeding murine NSCs were mechanically dissociated in order to seed the maximum percentage of stem cells.
(§2) The Ph.D.-7 phage library was used (New England Biolabs), composed of phage clones with random 7-mer peptides fused to the N-terminal of PIII, a minor coat protein of M13 phage.
(§3) Before biopanning experiments against NSCs in adhesion, the phage library was incubated in a Laminin-coated tissue culture dish in order to remove phages with affinity to the Laminin coated plastic surface (negative selection). Mouse Laminin (10 mL at 25 μg/ml concentration) (Roche) was incubated overnight at 37° C. 10^12 cfu of phages were incubated for one hour at 37° C. in pre-warmed Incubation Medium (DMEM supplemented with 0.1% BSA) in Laminin-coated plastic surfaces (setting for adhering NSCs) or plain plastic surfaces (setting for NSCs in suspension). Then incubation Medium and a total volume of five washes of Washing Buffer (DPBS supplemented with 1% BSA and 0.05% Tween-20) were collected and eluted phages were amplified as described in the standard protocol of New England Biolabs.
(§4) 10^12 cfu of the negatively selected phage library were diluted in 10 ml Incubation Medium and pipetted onto the adhering NSCs or NSCs in suspension.
(§5) After 1 hour of incubation at 37° C. cells were washed five times with pre-warmed Washing Buffer, cell membrane bound phages (MP) and internalized clones (IP) were recovered from independent duplicates of differentiating progenies by eluting and/or lysing the cells respectively. The cell surface was stripped by a 5 minutes incubation of 5 ml of Glycine Buffer (0.2 M Glycine-HCl supplemented with 1 mg/ml BSA (pH 2.2)) at RT. Eluted Phages were neutralized with 5 ml of 1 M Tris-HCl buffer (pH 8) and amplified.
(§6) Cells were then lysed with 9 ml of Lysing Buffer (0.1% TEA in PBS) for 5 minutes at RT. Internalized phages were neutralized with 1 ml of 1 M Tris-HCl buffer.
(§7) Neutralized phages were titered by infection of Escherichia coli to monitor the selection. Internalized and eluted phages were amplified separately for another round of selection. Three rounds of positive selection were performed. At round number two and three the biopannings of internalized and eluted phages were performed in different cell cultures (but with identical culture conditions) by collecting the phages of interest (i.e. internalized phages from libraries of internalized phages) and discarding the leftovers.
(§8) After the third round of biopanning, phage clones were randomly picked out from the titer plates and sequenced. Thirty phage plaques per each set of phages were randomly picked for sequencing. A small number of clones wasn't successfully sequenced. […] In the case of panning against NSC in suspension the highest consensus was for KLPGWSG (SEQ ID NO: 10) (47.36 for MP), GETRAPL (SEQ ID NO: 12) (14.28% for IP and 10.52% for MP) and HAIYPRH (SEQ ID NO: 11) (28.57% for IP and 5.26% for MP).

murine NSCs [2] = experiment: Immunofluorescence of differentiated NSC progeny on SAP scaffolds, murine; assay type: cell-based
Procedure: (§9) In vitro tests were performed as previously described (8), in order to assess whether the biomaterials (assembled hydrogels) obtained with the SAPs of the present invention influenced NSCs adhesion, survival and/or differentiation. SAPeptides (30 μl for each well at a concentration of 10 mg/ml) were assembled into 96 multiwells two hours before cell. Cells (at a concentration of 2×10^4 cells/cm^2) were seeded on the top-surface of each assembled scaffold. Initially, cells were cultured with basal medium supplemented with βFGF (10 ng/ml), added to […]. At 3 days in vitro (DIV), βFGF medium was replaced with Leukemia Inhibitory Factor (LIF, Chemicon) (20 ng/ml) and Brain Derived Neurotrophic Factor (BDNF, Peprotech) (20 ng/ml). Fresh medium was added every three days. For both viability and differentiation assays positive and negative controls consisted of Cultrex-BME® substrate (R&D systems) (1:100 dilution in basal medium) and untreated bottom well surfaces respectively. Cell viability was quantified via CellTiter 96® Aqueous Proliferation Assay (Promega) at 7 DIV as recommended in the Promega protocol. After calibrating the linear response between the cell number and absorbance values, proliferated cell populations were quantified (n=5) by using a Vmax microplate reader (Molecular Devices) at 490 nm wavelength. Values, reported as means±standard error of the mean, were blanked to their respective controls consisting of same substrates and cell culture media without cells.
(§10) Immunofluorescence tests were performed for assaying the phenotypes of the differentiated human and murine NSC progenies. In the case of KLP and Ac-KLP just murine NSC have been used. Ac-KLP and KLP scaffolds were prepared at different concentrations in order to display three different stiffness values (viz. 100, 500 and 1000 Pa). This was done to assess the influence of scaffold concentration (and consequently its stiffness) over NSC differentiation. All the other peptides were tested at 1% v/w concentration instead. The following antibodies were used: rabbit polyclonal against GFAP (1:500, DakoCytomation) for astrocytes, mouse monoclonal against βIII-Tubulin (1:500, Covance) for neurons, mouse monoclonal against GalC (1:200, Chemicon) and O4 (1:200, Chemicon) for oligodendrocyes. Secondary Abs were Goat anti Mouse Alexa 488 (1:1000, Molecular Probes), Goat anti Mouse Cy3 (1:1000, Jackson Immunoresearch), Goat anti Rabbit Cy3 (1:1000, Jackson Immunoresearch). Cell nuclei were counterstained with DAPI (Molecular Probes). Quantitative analyses were performed by counting 100-300 cells for each of 9 randomly chosen fields over a total of 3 independent experiments. Phase contrast and fluorescence images of the adhering cells were acquired via Zeiss microscopes Axioplan 2 and ApoTome System at one week after seeding.

human NSCs [3] = experiment: Immunofluorescence of differentiated NSC progeny on SAP scaffolds, human; assay type: cell-based; details: 1% scaffold, compared to Cultrex positive control
Procedure: as §9
as §10, with “Cell nuclei were counterstained with DAPI (Molecular Probes).” left out

murine NSCs [4] = experiment: Imaging and cell proliferation assay (CellTiter 96 MTS) on assembled hydrogels, murine NSCs; assay type: cell-based; details: 7 DIV; for cell viability / proliferated cell population (MTS): scaffolds 10 mg/ml, vs control, P<0.005
Procedure: as §9

human NSCs [5] = experiment: Imaging and cell proliferation assay (CellTiter 96 MTS) on assembled hydrogels, human NSCs; assay type: cell-based; details: 7 DIV; for cell viability / proliferated cell population (MTS): scaffolds 10 mg/ml, vs control, P<0.03
Procedure: as §9

[6] = test system: murine NSCs in adhesion (Laminin coated dishes); experiment: Phage biopanning (Ph.D.-7 library) against adhering NSCs; assay type: binding; details: for Frequency, eluted phage clones / Frequency, internalized phage clones: clones sequenced after three rounds of biopanning; for Frequency, eluted phage clones / %, eluted phage clones: cell membrane bound phages (MP); for %, eluted phage clones / %, internalized phage clones: consensus after three rounds of biopanning; for %, internalized phage clones / Frequency, internalized phage clones: internalized clones (IP)
Procedure: as §1
NSCs, three million per plate, were seeded over Laminin coated 10 cm Petri dishes (Falcon). After an overnight incubation in 10 ml of βFGF supplemented (10 ng/ml) neural basal media, cells were washed with pre-warmed Incubation Medium.
as §2, §3, §4, §5, §6, §7, §8

[7] = 1% scaffold, compared to Cultrex positive control

| Substance | Frequency, eluted phage clones [6] | %, eluted phage clones [6] [%] | %, internalized phage clones [6] [%] | Frequency, internalized phage clones [6] | further results |
| --- | --- | --- | --- | --- | --- |
| ALTPWAF (Prepared by synthesis) [heptapeptide domain found by phage biopanning against NSCs] |  |  |  |  | %, eluted phage clones [1]: 10.52%; Frequency, eluted phage clones [1]: 2 |
| Ac-FAQRVPPGGGLDLKLDLKLDLK-CONH2 (Ac-FAQRVPPGGGLDLKLDLKLDLK-NH2) |  |  |  |  | number of neurons (βIII-Tubulin) obtained (murine NSCs [2]; [7]): significantly higher; number of oligodendrocytes (GalC/O4) obtained (murine NSCs [2]; [7]): significantly higher; number of neurons (βIII-Tubulin) obtained (human NSCs [3]): significantly higher; number of oligodendrocytes (GalC/O4) obtained (human NSCs [3]): significantly higher; cell morphology, adhesion and spreading on assembled hydrogels (murine NSCs [4]): spread and branched cells; cell viability / proliferated cell population (MTS) (murine NSCs [4]): cell population was bigger; cell morphology, adhesion and spreading on assembled hydrogels (human NSCs [5]): spread and branched cells; cell viability / proliferated cell population (MTS) (human NSCs [5]): cell population was bigger |
| FAQRVPP (Prepared by synthesis) [heptapeptide domain found by phage biopanning against NSCs] | 15 | 62.5 | 53.5 |  |  |
| GETRAPL (Prepared by synthesis) [heptapeptide domain found by phage biopanning against NSCs] |  |  |  |  | %, internalized phage clones [1]: 14.28%; Frequency, internalized phage clones [1]: 2; %, eluted phage clones [1]: 10.52%; Frequency, eluted phage clones [1]: 2 |
| GKPMPPM (Prepared by synthesis) [heptapeptide domain found by phage biopanning against NSCs] |  |  |  |  | %, eluted phage clones [1]: 10.52%; Frequency, eluted phage clones [1]: 2 |
| HAIYPRH (Prepared by synthesis) [heptapeptide domain found by phage biopanning against NSCs] |  |  |  |  | %, internalized phage clones [1]: 28.57%; Frequency, internalized phage clones [1]: 4; %, eluted phage clones [1]: 5.26%; Frequency, eluted phage clones [1]: 1 |
| KLPGWSG (Prepared by synthesis) [heptapeptide domain found by phage biopanning against NSCs] |  |  |  |  | %, eluted phage clones [1]: 47.36%; Frequency, eluted phage clones [1]: 9 |
| LQAIPRN (Prepared by synthesis) [heptapeptide domain found by phage biopanning against NSCs] |  |  | 3.5 | 1 |  |
| LTTGSGS | 1 | 4.2 |  |  |  |
| NH2-KLPGWSGGGGLDLKLDLKLDLK-CONH2 (H-KLPGWSGGGGLDLKLDLKLDLK-NH2) |  |  |  |  | differentiated neurons (βIIITubulin positive cells) in correspondence of stiffness reductions (murine NSCs [2]; scaffold stiffness 100, 500 and 1000 Pa): significant increments; cell morphology, adhesion and spreading on assembled hydrogels (murine NSCs [4]): fostered NSCs adhesion and spreading similarly to FAQ |
| NH2-QHLPRDHGGGLDLKLDLKLDLK-CONH2 (H-QHLPRDHGGGLDLKLDLKLDLK-NH2) |  |  |  |  | cell viability / proliferated cell population (MTS) (murine NSCs [4]): significantly fostered cell viability; also recorded: significantly favored; cell viability / proliferated cell population (MTS) (human NSCs [5]): significantly fostered cell viability; also recorded: significantly favored |
| QHLPRDH (Prepared by synthesis) [heptapeptide domain found by phage biopanning against NSCs] | 2 | 8.3 | 14.2 | 4 |  |
| SASHWQI (Prepared by synthesis) [heptapeptide domain found by phage biopanning against NSCs] |  |  | 3.5 | 1 |  |
| SILPYPY (Prepared by synthesis) [heptapeptide domain found by phage biopanning against NSCs] |  |  |  |  | %, internalized phage clones [1]: 14.28%; Frequency, internalized phage clones [1]: 2 |
| SLPKLPP (Prepared by synthesis) [heptapeptide domain found by phage biopanning against NSCs] |  |  | 3.5 | 1 |  |
| SSELVTH | 1 | 4.2 |  |  |  |
| SSLSVND (Prepared by synthesis) [heptapeptide domain found by phage biopanning against NSCs] | 1 | 4.2 | 10.7 | 3 |  |
| TAVNSDA | 1 | 4.2 |  |  |  |
| TPLSSHS (Prepared by synthesis) [heptapeptide domain found by phage biopanning against NSCs] |  |  | 3.5 | 1 |  |
| TPPFAAW | 1 | 4.2 |  |  |  |
| TTTPTTP | 1 | 4.2 |  |  |  |
| YIIPMHD (Prepared by synthesis) [heptapeptide domain found by phage biopanning against NSCs] | 1 | 4.2 | 3.5 | 1 |  |
| YRMPIWP (Prepared by synthesis) [heptapeptide domain found by phage biopanning against NSCs] |  |  | 3.5 | 1 |  |

— US9273101B2, “Functionalized biomaterials for tissue regeneration” (Nanomed3D S.R.L., priority 2011, dated 2016)
